Our source for the LC retention time values is the RepoRT retention time repository.

A short description of the data set: RP, Waters ACQUITY UPLC BEH C18, 50 × 2.1 mm, 1.7 µm, 40 °C, 0.6 mL/min, estimated dead time 0.18 min; A: water + 0.1% formic acid, pH 3; B: acetonitrile + 0.1% formic acid, pH 3; gradient (min/%B) 0/5 7/100 8/100. To be noted: stereoisomer not certain.

Take `C=C1CCC(C(C)C)=CC2C1CCC2(C)O` (configuration not stated): the LC retention time was 3.02 min.

As for `CCN1CC2(COC(=O)c3ccccc3NC(=O)CCC(=O)O)CCC(OC)C34C5CC6C(OC)CC(O)(C5C6OC)C(O)(C(OC)C23)C14` (configuration not stated), the LC retention time is 2.22 min.

Turning to `COc1cc2c(cc1O)CC1NCCc3cc(O)c(OC)c-2c31` (configuration not stated), the LC retention time is 1.11 min.

As to `COc1ccc(OC)c([N+](=O)[O-])c1/C=C/[N+](=O)[O-]` [1,4-dimethoxy-2-nitro-3-[(1E)-2-nitroethenyl]benzene], the LC retention time is 0.72 min.

`COc1c(O)c(O)c(-c2c(O)c(O)c(OC)c3oc4ccccc4c23)c2c1oc1ccccc12`: the LC retention time was 3.58 min.

On to `CC(=O)OC(C)(C)/C=C/C(=O)[C@](C)(O)[C@H]1[C@H](O)C[C@@]2(C)C3CC=C4C(CC(=O)C(O)C4(C)C)[C@]3(C)C(=O)C[C@]12C` (some centres not stated), for which the LC retention time was 2.88 min.

As to `C[C@@H]1CC2(NCCS2)C(=O)C(O[C@@H]2CC3CCC4C(CC[C@]5(C)[C@@H](C6=CC(=O)OC6)CC[C@]45O)[C@@]3(C=O)C[C@H]2O)O1` (some centres not stated), the LC retention time was 1.89 min.

In the case of `CCCCCCCCCCCCCCCC(=O)OC12CC(C)C3(O)C(C4OC4(CO)C(O)C4(O)C(=O)C(C)=CC43)C1C2(C)C` (configuration not stated), the LC retention time is 6.96 min.

Turning to `COc1ccc2c3c1OC1C(O)C=CC4C(C2)N(C)CCC341` (configuration not stated), the LC retention time is 0.85 min.

With `COc1cc2c3c(c1OC)Oc1ccc(cc1)CC1c4c(cc(OC)c5c4Oc4ccc(cc4CO5)CC3N(C)CC2)CCN1C` (configuration not stated), the LC retention time is 1.6 min.

With `Cc1ccc2c(c1)C1(C(C)C)CCC2(C)OO1` (configuration not stated), the LC retention time was 4.34 min.

For the compound `O=C1CC(c2ccc(O)cc2)Oc2c1c(O)cc(O)c2C1C(=O)c2c(O)cc(O)cc2OC1c1ccc(O)cc1` (configuration not stated), the LC retention time was 2.36 min.

`CC[C@]12C=CCN3CC[C@]4(C(=C(C(=O)OC)C1)Nc1ccccc14)C32` (some centres not stated): the LC retention time was 2.17 min.

With `COC1=CC(=O)C2(c3cc(=O)c4c(O)cc(O)cc4o3)C(CC=C(C)C2C[C@H]2[C@@H](C)[C@@H](O)C[C@H]3C(C)(C)C[C@H](O)C[C@]23C)C1=O` (some centres not stated), the LC retention time was 1.14 min.

In the case of `C[C@@H]1O[C@@H](O[C@@H]2C(O[C@H]3CC[C@@]4(C)C(CC[C@]5(C)C4CC=C4C6CC(C)(C)CC[C@]6(C(=O)O)CC[C@]45C)[C@]3(C)CO)OC[C@@H](OC3O[C@H](CO)[C@@H](O)[C@H](O)[C@H]3O)[C@H]2O)[C@H](O)[C@H](O[C@@H]2OC[C@@H](O)[C@H](O)[C@H]2O)[C@H]1O` (some centres not stated), the LC retention time is 2.21 min.

With `COc1ccc2c(c1OC)C(=O)OC2C1c2c(cc3c(c2OC)OCO3)CCN1C` (configuration not stated), the LC retention time was 1.83 min.

As for `C=C1[C@@H](O)C[C@H]2C(C)(C)C[C@H](O)C[C@]2(C)[C@H]1CC1C(C)=CCC2C(=O)C(OC)=CC(=O)C21c1cc(=O)c2c(O)cc(O)cc2o1` (some centres not stated), the LC retention time is 0.702 min.

For `CC12CCC(C(OC(=O)/C=C/c3ccc(O)cc3)C1)C2(C)C` (configuration not stated), the LC retention time was 4.89 min.

Turning to `C/C=C1\CN2CCc3c([nH]c4ccccc34)[C@@H]2C[C@@H]1/C(=C\OC)C(=O)OC`, the LC retention time is 2.41 min.

Consider `COc1ccc2cc1-c1cc(ccc1O)C[C@@H]1NCCc3cc4c(cc31)Oc1c(c(OC)c(O)c3c1[C@H](C2)N(C)CC3)O4`, for which the LC retention time was 1.69 min.

Take `COc1cc2c(cc1O)C(Cc1ccc(O)cc1)NCC2` (configuration not stated): the LC retention time is 1.05 min.

Regarding `COc1ccc(-c2oc3cc(OC)c(OC)c(O)c3c(=O)c2OC)cc1O`, the LC retention time is 2.62 min.

Turning to `COc1ccc(C(=O)[C@@H](c2coc3cc(O)ccc3c2=O)C(c2ccc(O)cc2)c2ccc(O)cc2)c(OC)c1`, the LC retention time was 3.68 min.

As for `COC(=O)C1=CC(O)C23OC1CC2(C)CC[C@H](C(C)C)O3` (some centres not stated), the LC retention time is 3.33 min.

With `CC[C@H]1NC2C[C@@]3(C(=O)N(OC)c4cc(OC)ccc43)C3CC1C2CO3` (some centres not stated), the LC retention time was 1.95 min.

Take `CCCCCCCCCCC[C@@H]1CCC[C@@H](C)N1` [(2R,6R)-2-methyl-6-undecylpiperidine]: the LC retention time was 4.03 min.

Turning to `C=CC12CN(C)C3C4COC(C[C@@H]41)[C@]1(C(=O)Nc4ccccc41)C32` (some centres not stated), the LC retention time was 1.01 min.

As to `COc1ccc2c3c(c4cc(OC)c(OC)cc4c2c1)CC1CCCN1C3` (configuration not stated), the LC retention time is 2.27 min.

Take `CN1CCc2ccc(O)c3c2C1Cc1cc2c(cc1O3)OCO2` (configuration not stated): the LC retention time was 1.4 min.

For the compound `C=C(C(=O)C(OC(C)=O)C(C)C1C(OC(C)=O)CC2(C)C3CCC4C(C)C(=O)C=CC45CC35CCC12C)C(C)CO` (configuration not stated), the LC retention time was 4.41 min.

As to `CCC(O)c1cc(=O)oc2c(C(=O)CC(C)C)c(O)c(CC=C(C)C)c(O)c12` (configuration not stated), the LC retention time is 5.49 min.

In the case of `CC(C)=CCC1CC2(CC=C(C)C)C(O)=C(C(=O)CC(C)C)C(=O)OC2=C(C(CC(=O)O)c2ccccc2)C1(C)C` (configuration not stated), the LC retention time was 6.29 min.

Turning to `COc1c(O)ccc2c1C(OC)N(C)c1c-2ccc2cc3c(cc12)OCO3` (configuration not stated), the LC retention time is 2.48 min.

With `CC(=O)OC/C=C(\C)C(=O)OC1C(=O)C(CO)=CC(OC(C)=O)C1C(C)C` (configuration not stated), the LC retention time was 2.84 min.

As for `C=C1C2CCC3C4(C)CCCC(C)(C(=O)O)C4CCC3(C2)C1O` (configuration not stated), the LC retention time was 3.64 min.

Take `CC(C)=CCCC(C)C12C=CC(C)(CC1)OO2` (configuration not stated): the LC retention time is 4.96 min.

With `COc1cc2c3c(c1OC)Oc1ccc(cc1)CC1c4c(cc(OC)c(OC)c4Oc4ccc(cc4)CC3N(C)CC2)CCN1C` (configuration not stated), the LC retention time is 1.79 min.

Turning to `C[C@H](C/C=C/C(C)(C)O)[C@H]1CC[C@@]2(C)C3C(=O)C=C4C(CCC(O)C4(C)C)[C@]3(C)CC[C@]12C` (some centres not stated), the LC retention time was 4.37 min.

For the compound `CCC1C2CCCCN3C(C4CC(C)C(=O)O4)CC(C4C(C)C(=O)OC14)C23` (configuration not stated), the LC retention time was 1.55 min.

For `COc1cc(-c2oc3cc(OC)c(OC)c(O)c3c(=O)c2OC)ccc1O`, the LC retention time was 2.66 min.

Regarding `CC(C)(O)/C=C/C(=O)[C@](C)(O)[C@H]1[C@H](O)C[C@@]2(C)[C@@H]3CC=C4[C@@H](C[C@H](O)C(=O)C4(C)C)[C@]3(C)C(=O)C[C@]12C`, the LC retention time was 2.77 min.

In the case of `C=C(C)[C@@]12OC3(/C=C/C=C\CCCCC)O[C@@H]1C1[C@@H]4O[C@]4(CO)[C@@H](O)[C@]4(O)C(=O)C(C)=CC4[C@@]1(O3)[C@H](C)[C@H]2OC(=O)c1ccccc1` (some centres not stated), the LC retention time is 5.88 min.

For `C=C1C(=O)O[C@@H]2C[C@@]3(C)CCC[C@H](C)C3=C[C@H]12`, the LC retention time is 4.26 min.

As to `COc1cc(C=O)c([N+](=O)[O-])cc1OC` [4,5-dimethoxy-2-nitrobenzaldehyde], the LC retention time was 0.304 min.

In the case of `C=C1COC(=O)C12C[C@@]1(C)C([C@@H](OC(=O)/C(C)=C\C)CC[C@@H]1C)[C@H]2OC(C)=O` (some centres not stated), the LC retention time is 4.16 min.

On to `CC1(C(=O)O)CCCC2(C)C3CCC4CC3(C=C4C=O)CCC12` (configuration not stated), for which the LC retention time is 4 min.

With `C=C1COC(=O)C12C[C@@]1(C)C([C@@H](OC(=O)/C=C/SC)CC[C@@H]1C)[C@H]2OC(C)=O` (some centres not stated), the LC retention time is 4.07 min.

Take `COC(=O)C1=CC(O)C23OOC1CC2(C)CCC3C(C)C` (configuration not stated): the LC retention time was 3.72 min.

Take `CCN1CC2(COC(=O)c3ccccc3N3C(=O)CC(C)C3=O)CCC(OC)C34C5CC6C(OC)CC(O)(C5C6OC)C(O)(C(OC)C23)C14` (configuration not stated): the LC retention time is 2.22 min.

On to `CC1=CC2CC(C)C(CO)/C=C(\C)C(O)C(=O)/C=C(\C)CCC12` (configuration not stated), for which the LC retention time was 4.1 min.

For the compound `CC1CC2CC3CCCC(=O)N3C3CCC(O)C(C1)N23` (configuration not stated), the LC retention time was 0.92 min.

As for `COc1c(C=O)c(O)cc2c1C(=O)c1ccccc1C2=O`, the LC retention time is 3.59 min.

As to `CC1(C)CCC2(C(=O)O)CC=C3C(C)(CCC4C3(C)CCC3C(C)(C)C(OC(=O)c5ccc(O)cc5)C(OC(=O)c5ccc(O)cc5)CC43C)C2C1` (configuration not stated), the LC retention time is 5.54 min.

In the case of `CCCCCCCCCCCCO[C@@H]1O[C@@H](C)[C@H](O[C@@H]2O[C@@H](C)[C@H](OC(C)=O)[C@@H](O[C@@H]3O[C@@H](C)[C@H](OC(C)=O)[C@@H](O[C@@H]4O[C@@H](C)[C@H](OC(C)=O)[C@@H](O)[C@H]4O)[C@H]3OC(C)=O)[C@H]2O)[C@@H](O)[C@H]1O`, the LC retention time is 5.82 min.

Turning to `CC(=O)O[C@@H](C[C@@H](C)C1=C2CC(O)C3[C@@]4(C)CCC(=O)C(C)(C)C4CC[C@]3(C)[C@@]2(C)CC1)[C@H]1OC1(C)C` (some centres not stated), the LC retention time is 5.4 min.

As for `COc1cc(O)c2c(c1)C(=O)c1cc(C)cc(O)c1C2=O`, the LC retention time is 4.7 min.

In the case of `CC(=O)OC(C)(C)/C=C/C(=O)[C@](C)(O)[C@H]1[C@H](O)C[C@@]2(C)C3CC=C4C(C[C@H](OC5OC(CO)C(O)C(O)C5O)C(=O)C4(C)C)[C@]3(C)C(=O)C[C@]12C` (some centres not stated), the LC retention time was 2.74 min.

Take `C=C1[C@@H](O)C[C@H]2C(C)(C)CCC[C@]2(C)[C@H]1CC1C(C)=CCC2C(=O)C(OC)=CC(=O)C21c1cc(=O)c2c(O)cc(O)cc2o1` (some centres not stated): the LC retention time was 2.12 min.

On to `CC(C)(O)/C=C/C(=O)[C@](C)(O)[C@H]1[C@H](O)C[C@@]2(C)C3CC=C4C(CC(=O)C(O)C4(C)C)[C@]3(C)C(=O)C[C@]12C` (some centres not stated), for which the LC retention time was 2.9 min.

On to `C=C(C)C(CCC(C)(C)O)Cc1c(O)cc(O)c2c1OC(c1ccc(O)cc1O)CC2=O` (configuration not stated), for which the LC retention time is 2.97 min.

`COc1c(CC=C(C)C)c(O)c(CC=C(C)C)c(O)c1C(=O)c1ccc(O)cc1`: the LC retention time was 4.77 min.

Regarding `COc1cc2c(cc1OC)Oc1c(O)ccc3c1C(C2)N(C)CC3` (configuration not stated), the LC retention time is 1.37 min.

Turning to `CC[C@H]1C[C@H]2CN3CCc4c([nH]c5ccc(OC)cc45)[C@](C(=O)OC)(C2)C13`, the LC retention time is 2.02 min.

Consider `CCC(O)C(/C=C1\C(=O)C=CC1(O)CCCCCCCC(=O)OC)OC(C)=O` (configuration not stated), for which the LC retention time is 3.08 min.

For `C=C1C(=O)O[C@@H]2C[C@@]3(C)CCCC(=C)[C@@H]3C[C@H]12`, the LC retention time was 4.2 min.

Take `C/C=C1/C2C=C(C)CC1(N)c1ccc(=O)[nH]c1C2` (configuration not stated): the LC retention time is 0.913 min.

For the compound `O=C1c2ccc(O)cc2OC(c2ccc(O)cc2)C1C1C(=O)c2ccc(O)cc2OC1c1ccc(O)cc1` (configuration not stated), the LC retention time is 2.67 min.
